Source: BindingDB's records for doi:10.1016/j.chembiol.2007.05.004 (University of Tokyo, 2007)

The molecules below were run against T1, Cytochrome P450 1B1 (Homo sapiens, UniProt Q16678) (assay: EROD Assay). Settings: pH 8; 37 °C.
T1 sequence (Q16678 whole entry): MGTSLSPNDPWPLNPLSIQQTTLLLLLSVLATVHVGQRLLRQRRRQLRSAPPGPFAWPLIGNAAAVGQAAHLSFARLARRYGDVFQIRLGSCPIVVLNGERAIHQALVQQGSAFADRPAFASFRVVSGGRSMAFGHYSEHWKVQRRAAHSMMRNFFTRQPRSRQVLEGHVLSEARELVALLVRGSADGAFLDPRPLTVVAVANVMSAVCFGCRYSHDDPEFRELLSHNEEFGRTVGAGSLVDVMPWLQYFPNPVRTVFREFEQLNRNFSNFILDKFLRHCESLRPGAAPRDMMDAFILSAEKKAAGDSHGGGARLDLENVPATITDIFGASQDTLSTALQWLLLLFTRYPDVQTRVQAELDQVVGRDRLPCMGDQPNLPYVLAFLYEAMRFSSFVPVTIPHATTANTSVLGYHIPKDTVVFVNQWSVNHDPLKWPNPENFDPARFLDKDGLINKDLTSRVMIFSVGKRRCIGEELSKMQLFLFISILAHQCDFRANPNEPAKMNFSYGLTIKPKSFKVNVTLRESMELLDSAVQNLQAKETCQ
Text: The ethoxyresorufin-O-deethylase (EROD) assay is used to test the activity of CYP1B1.

Row | SMILES | Ki [nM]
1 | Oc1cc(O)cc(/C=C/c2ccc(F)cc2)c1 [Stilbene, 8f] | 323
2 | Oc1cc(O)cc(/C=C/c2ccoc2)c1 [Stilbene, 15f] | 1110
3 | Oc1cc(O)cc(/C=C/c2ccsc2)c1 [Stilbene, 16f] | 1180

The next molecules have a lower Ki than those just listed; values first:

Row | Ki [nM] | SMILES
4 | 177 | Oc1ccc(/C=C/c2cc(O)cc(O)c2)cc1 [5-[(E)-2-(4-hydroxyphenyl)ethenyl]benzene-1,3-diol]
5 | 74.3 | Oc1cc(O)cc(/C=C/c2ccccc2)c1 [(E)-5-(2-phenylethenyl)-1,3-benzenediol]
